In patent US9409943B2 (Bristol-Myers Squibb Company, priority 2012, dated 2016):
Read-outs that look alike come from different tables or passages of the source.

Key:
HCV GT1a(H77) replicon = test: HCV replicon luciferase reporter assay, genotype 1a; format: cell-based, HCV genotype 1a; details: Hepatitis C virus, 72 h, HUH-7 cells, 3 days incubation
From the text: A stable HCV GT1a(H77) replicon luciferase reporter cell line (Yanagi M, Purcell R H, Emerson S U, et al. Transcripts from a single full-length cDNA clone of hepatitis C virus are infectious when directly transfected into the liver of a chimpanzee. Proc Natl Acad Sci USA 1997; 94(16):8738-8743) was generated as described previously for the genotype 1b(Con1) replicon luciferase cell line. The replicon construct was modified by introducing mutations into the genes encoding the NS3 helicase domain (proline replaced by leucine at position 1496) and NS5A (serine to isoleucine at position 2204) to improve replication in cell culture.
(§1) HCV replicon luciferase assays were developed to monitor the inhibitory effects of compounds described in the disclosure on HCV genotypes 1a and 1b viral replication. HUH-7 cells, constitutively expressing the HCV replicon, were grown in Dulbecco's Modified Eagle Media (DMEM) (Gibco-BRL) containing 10% Fetal calf serum (FCS) (Sigma) and 1 mg/mL G418 (Gibco-BRL). Compounds were serially diluted 3 folds in DMSO for a twenty-point titration and subsequently transferred to sterile 384-well tissue-culture treated plates (Corning cat #3571). The plates were then seeded with 50 μL of cells at a density of 3.0×10^3 cells/well in DMEM containing 4% FCS (final DMSO concentration at 0.5%). After 3 days incubation at 37° C., cells were analyzed for Renilla Luciferase activity using the EnduRen as substrate (Promega cat #E6485). The EnduRen substrate was diluted in DMEM and then added to the plates to a final concentration of 7.5 μM. The plates were incubated for 2 hrs at 37° C. and then read immediately for 30 seconds with Viewlux Imager (PerkinElmer) using a luminescence program. To assess cytotoxicity of compounds, CC50 values were generated by multiplexing the EnduRen-containing plates with Cell Titer-Blue (Promega, cat # G8082). Cell-Titer Blue (3 μL) was added to each well and incubated for 8 hrs at 37° C. The fluorescence signal from each well was read, with an excitation wavelength at 525/10 nm and an emission wavelength of 598/10 nm, using the Viewlux Imager.
(§2) The EC50 values for compounds were calculated by using a four-parameter logistic equation: y=A+((B−A)/(1+((C/x)^D))), where A and B denotes minimal and maximal % inhibition, respectively, C is the EC50, D is the hill slope and x represents compound concentration.

HCV GT1b(Con1) replicon = test: HCV replicon luciferase reporter assay, genotype 1b; format: cell-based, HCV genotype 1b; details: Hepatitis C virus, 72 h, HUH-7 cells, 3 days incubation
From the text: An HCV GT1b(Con1) replicon cell system was established as described by Lohmann V, Korner F, Koch J, Herian U, Theilmann L, Bartenschlager R., Science 285(5424):110-3 (1999) and modified to introduce a luciferase reporter (Krieger N, Lohmann V, and Bartenschlager R, J. Virol. 75(10):4614-4624 (2001)). cDNA encoding a humanized form of the Renilla luciferase gene, and a linker sequence fused directly to the 3′-end of the luciferase gene were introduced into the replicon construct using an Asc1 restriction site located in core, directly upstream of the neomycin marker gene. The adaptive mutation at position 1179 (serine to isoleucine) was also introduced (Blight K J, Kolykhalov, A A, Rice, C M, Science 290(5498):1972-1974). A stable cell line constitutively expressing this HCV replicon construct was generated by first linearizing plasmid DNAs with ScaI. RNA transcripts were synthesized in vitro using the T7 MegaScript transcription kit (Ambion, Austin, Tex.) according to manufacturer's directions. In vitro transcripts of the cDNA were transfected into the human hepatoma cell line, HUH-7. […] Resulting cell lines were characterized for positive and negative strand RNA production and protein production over time.
as §1, §2

Structure (SMILES)	EC50 (HCV GT1a(H77) replicon; read-out: LE_1a (EC50, range)) [nM]	EC50 (HCV GT1b(Con1) replicon; read-out: LE_1b (EC50, range)) [nM]	EC50 (HCV GT1a(H77) replicon; read-out: LE_1a (EC50)) [nM]	EC50 (HCV GT1b(Con1) replicon; read-out: LE_1b (EC50)) [nM]
C[C@@H]1CC/C=C\[C@@H]2C[C@@]2(C(=O)NS(=O)(=O)C2(CF)CC2)NC(=O)[C@@H]2C[C@@H](OC(=O)c3ccccc3C(F)(F)F)CN2C(=O)[C@@H](NC(=O)OC(C)(C)C(F)(F)F)[C@H](C)C1 [Compound 1002, (2R,6S,7R,9R,13aS,14aR,16aS,Z)-14a-(((1-(fluoromethyl)cyclopropyl)sulfonyl)carbamoyl)-7,9-dimethyl-5,16-dioxo-6-((((1,1,1-trifluoro-2-methylpropan-2-yl)oxy)carbonyl)amino)-1,2,3,5,6,7,8,9,10,11,13a,14,14a,15,16,16a-hexadecahydrocyclopropa[e]pyrrolo[1,2-a][1,4]diazacyclopentadecin-2-yl 2-(trifluoromethyl)benzoate]	5.01 to 35	1.01 to 5	–	–
COc1ccc(C(=O)O[C@@H]2C[C@H]3C(=O)N[C@]4(C(=O)NS(=O)(=O)C5(C)CC5)C[C@H]4/C=C\CC[C@@H](C)C[C@@H](C)[C@H](NC(=O)OC(C)(C)C)C(=O)N3C2)cc1 [Compound 1003, (2R,6S,7R,9R,13aS,14aR,16aS,Z)-6-((tert-butoxycarbonyl)amino)-7,9-dimethyl-14a-(((1-methylcyclopropyl)sulfonyl)carbamoyl)-5,16-dioxo-1,2,3,5,6,7,8,9,10,11,13a,14,14a,15,16,16a-hexadecahydrocyclopropa[e]pyrrolo[1,2-a][1,4]diazacyclopentadecin-2-yl 4-methoxybenzoate]	5.01 to 35	5.01 to 35	–	–
COc1ccc(C(=O)O[C@@H]2C[C@H]3C(=O)N[C@]4(C(=O)NS(=O)(=O)C5(C)CC5)C[C@H]4/C=C\CC[C@@H](C)C[C@@H](C)[C@H](NC(=O)OC(C)(C)C(F)(F)F)C(=O)N3C2)cc1 [Compound 1005, (2R,6S,7R,9R,13aS,14aR,16aS,Z)-7,9-dimethyl-14a-(((1-methylcyclopropyl)sulfonyl)carbamoyl)-5,16-dioxo-6-((((1,1,1-trifluoro-2-methylpropan-2-yl)oxy)carbonyl)amino)-1,2,3,5,6,7,8,9,10,11,13a,14,14a,15,16,16a-hexadecahydrocyclopropa[e]pyrrolo[1,2-a][1,4]diazacyclopentadecin-2-yl 4-methoxybenzoate]	1.01 to 5	0.51 to 1	1.15	0.75
C[C@@H]1CC/C=C\[C@@H]2C[C@@]2(C(=O)NS(=O)(=O)C2(CF)CC2)NC(=O)[C@@H]2C[C@@H](OC(=O)c3ccc4ccccc4c3)CN2C(=O)[C@@H](NC(=O)OC(C)(C)C(F)(F)F)[C@H](C)C1 [Compound 1006]	1.01 to 5	1.01 to 5	–	–
COc1ccccc1C(=O)O[C@@H]1C[C@H]2C(=O)N[C@]3(C(=O)NS(=O)(=O)C4(CF)CC4)C[C@H]3/C=C\CC[C@@H](C)C[C@@H](C)[C@H](NC(=O)OC(C)(C)C(F)(F)F)C(=O)N2C1 [Compound 1008, (2R,6S,7R,9R,13aS,14aR,16aS,Z)-14a-(((1-(fluoromethyl)cyclopropyl)sulfonyl)carbamoyl)-7,9-dimethyl-5,16-dioxo-6-((((1,1,1-trifluoro-2-methylpropan-2-yl)oxy)carbonyl)amino)-1,2,3,5,6,7,8,9,10,11,13a,14,14a,15,16,16a-hexadecahydrocyclopropa[e]pyrrolo[1,2-a][1,4]diazacyclopentadecin-2-yl 2-methoxybenzoate]	5.01 to 35	1.01 to 5	–	–
C[C@@H]1CC/C=C\[C@@H]2C[C@@]2(C(=O)NS(=O)(=O)C2(CF)CC2)NC(=O)[C@@H]2C[C@@H](OC(=O)c3cccc(F)c3)CN2C(=O)[C@@H](NC(=O)OC(C)(C)C(F)(F)F)[C@H](C)C1 [Compound 1010, (2R,6S,7R,9R,13aS,14aR,16aS,Z)-14a-(((1-(fluoromethyl)cyclopropyl)sulfonyl)carbamoyl)-7,9-dimethyl-5,16-dioxo-6-((((1,1,1-trifluoro-2-methylpropan-2-yl)oxy)carbonyl)amino)-1,2,3,5,6,7,8,9,10,11,13a,14,14a,15,16,16a-hexadecahydrocyclopropa[e]pyrrolo[1,2-a][1,4]diazacyclopentadecin-2-yl 3-fluorobenzoate]	5.01 to 35	1.01 to 5	–	–
C[C@@H]1CC/C=C\[C@@H]2C[C@@]2(C(=O)NS(=O)(=O)C2(CF)CC2)NC(=O)[C@@H]2C[C@@H](OC(=O)c3ccc4c(c3)OCO4)CN2C(=O)[C@@H](NC(=O)OC(C)(C)C(F)(F)F)[C@H](C)C1 [Compound 1011, (2R,6S,7R,9R,13aS,14aR,16aS,Z)-14a-(((1-(fluoromethyl)cyclopropyl)sulfonyl)carbamoyl)-7,9-dimethyl-5,16-dioxo-6-((((1,1,1-trifluoro-2-methylpropan-2-yl)oxy)carbonyl)amino)-1,2,3,5,6,7,8,9,10,11,13a,14,14a,15,16,16a-hexadecahydrocyclopropa[e]pyrrolo[1,2-a][1,4]diazacyclopentadecin-2-yl benzo[d][1,3]dioxole-5-carboxylate]	5.01 to 35	1.01 to 5	7.98	1.68
C[C@H]1CC/C=C\[C@@H]2C[C@@]2(C(=O)NS(=O)(=O)C2(C)CC2)NC(=O)[C@@H]2C[C@@H](OC(=O)c3ccc4c(c3)OCCO4)CN2C(=O)[C@@H](NC(=O)OC(C)(C)C)[C@H](C)C1 [Compound 1012, (2R,6S,7R,9S,13aS,14aR,16aS,Z)-6-((tert-butoxycarbonyl)amino)-7,9-dimethyl-14a-(((1-methylcyclopropyl)sulfonyl)carbamoyl)-5,16-dioxo-1,2,3,5,6,7,8,9,10,11,13a,14,14a,15,16,16a-hexadecahydrocyclopropa[e]pyrrolo[1,2-a][1,4]diazacyclopentadecin-2-yl 2,3-dihydrobenzo[b][1,4]dioxine-6-carboxylate]	5.01 to 35	1.01 to 5	–	–
C[C@@H]1CC/C=C\[C@@H]2C[C@@]2(C(=O)NS(=O)(=O)C2(C)CC2)NC(=O)[C@@H]2C[C@@H](OC(=O)c3ccc4c(c3)OCCO4)CN2C(=O)[C@@H](NC(=O)OC(C)(C)C)[C@H](C)C1 [Compound 1013, (2R,6S,7R,9R,13aS,14aR,16aS,Z)-6-((tert-butoxycarbonyl)amino)-7,9-dimethyl-14a-(((1-methylcyclopropyl)sulfonyl)carbamoyl)-5,16-dioxo-1,2,3,5,6,7,8,9,10,11,13a,14,14a,15,16,16a-hexadecahydrocyclopropa[e]pyrrolo[1,2-a][1,4]diazacyclopentadecin-2-yl 2,3-dihydrobenzo[b][1,4]dioxine-6-carboxylate]	1.01 to 5	1.01 to 5	–	–
C[C@@H]1CC/C=C\[C@@H]2C[C@@]2(C(=O)NS(=O)(=O)C2(C)CC2)NC(=O)[C@@H]2C[C@@H](OC(=O)c3ccc4c(c3)OCCO4)CN2C(=O)[C@@H](NC(=O)OC(C)(C)C(F)(F)F)[C@H](C)C1 [Compound 1015, (2R,6S,7R,9R,13aS,14aR,16aS,Z)-7,9-dimethyl-14a-(((1-methylcyclopropyl)sulfonyl)carbamoyl)-5,16-dioxo-6-((((1,1,1-trifluoro-2-methylpropan-2-yl)oxy)carbonyl)amino)-1,2,3,5,6,7,8,9,10,11,13a,14,14a,15,16,16a-hexadecahydrocyclopropa[e]pyrrolo[1,2-a][1,4]diazacyclopentadecin-2-yl 2,3-dihydrobenzo[b][1,4]dioxine-6-carboxylate]	5.01 to 35	1.01 to 5	–	–
C[C@@H]1CC/C=C\[C@@H]2C[C@@]2(C(=O)NS(=O)(=O)C2(C)CC2)NC(=O)[C@@H]2C[C@@H](OC(=O)Nc3ccccc3C(F)(F)F)CN2C(=O)[C@@H](NC(=O)OC(C)(C)C)[C@H](C)C1 [Compound 1302]	5.01 to 35	1.01 to 5	–	–
